# Measured values: patent US20240051921A1, “CRYSTALLINE FORM OF A PHENOLIC TRPV1 AGONIST PRODRUG” (Concentric Analgesics, Inc., priority 2020, published 2024)
# Experiment: Dynamic vapor sorption (DVS) test, form stability as a function of relative humidity
# Type: physicochemical
# Conditions: 25° C.
# Experimental: DVS test was performed using an SMS (Surface Measurement Systems) DVS Intrinsic instrument. The relative humidity at 25° C. were calibrated against deliquescence point of LiCl, Mg(NO3)2 and KCl. The following instrument parameters were used:
# DVS test was performed on crystalline Compound 1, Form 1, to investigate its form stability as a function of relative humidity. The DVS test was first conducted at 25° C. with humidity cycled between 0% RH-95% RH-0% RH.
structure (smiles),measurement,setting,value
"CNCC1CCCCN1C(=O)Oc1ccc(CNC(=O)CCCC/C=C/C(C)C)cc1OC.Cl (stereo not drawn) [Compound 1, Form 1, (E)-2-methoxy-4-((8-methylnon-6-enamido)methyl)phenyl 2-((methylamino)methyl)piperidine-1-carboxylate hydrochloride]",crystal form change before and after DVS test (XRPD),"0% RH-95% RH-0% RH, checked by XRPD",no form change occurred
same,moisture content (DVS),"at 95% RH, cycle 0% RH-95% RH-0% RH",16.5 % wt
same,"moisture content, relative stable platform (DVS)",between 20% RH and 70% RH,~3.5 % wt
